Source: patent US12187705B2, “Heteroaryl-triazole and heteroaryl-tetrazole compounds as pesticides” (Bayer Aktiengesellschaft, priority 2018, dated 2025)

Columns and labels:
Type in all cases: in vivo
[1] = tested on: Diabrotica balteata; assay: Diabrotica balteata spray test; conditions: Diabrotica balteata, 168 h; 160 μg/well, wheat seeds, after 7 days; read-out: efficacy (seedlings grown)
Procedure, shortened: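 Wheat seeds germinated 1 day on agar were sprayed with compound diluted in water with 1000 ppm emulsifier, then infested with 10-20 Diabrotica balteata larvae. Efficacy in % scored after 7 days: 100% = seedlings grown as untreated, uninfected control; 0% = no seedlings grown.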

[2] = tested on: Myzus persicae; assay: Myzus persicae oral test; conditions: 120 h
Procedure, shortened: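 Feeding test: compound diluted in water was combined with IPL41 insect medium (33%+15% sugar) under a parafilm seal. A mixed population of green peach aphids fed through the membrane. Mortality (%) was scored after 5 days.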

[3] = tested on: Rhipicephalus sanguineus; assay: Rhipicephalus sanguineus in-vitro contact test with adult brown dog ticks; conditions: Rhipicephalus sanguineus; 5 μg/cm^2 (=500 g/ha), after 48 hours; read-out: efficacy (ticks dead or moribund)
Procedure, shortened: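 Compound in acetone coated onto inner walls of glass tubes; 900 ppm gives 5 μg/cm^2. Five to ten adult ticks held 48 h at room temperature, then heated at 45-50° C. up to 5 min; ticks unable to climb away scored dead or moribund, efficacy as % dead/moribund.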

[4] = tested on: Musca domestica strain WHO-N; assay: Musca domestica test (MUSCDO surface treatment & contact assay); conditions: 24 hours after contact, read-out: efficacy (mortality); for mortality at 20 mg/m2: surface concentration 20 mg/m^2, 30 minutes exposure
Procedure, shortened: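 Compound was dissolved in acetone (2 mg/ml) with 2000 ppm rapeseed oil methyl ester and pipetted onto glazed tiles. After the acetone evaporated, adult WHO-N flies were exposed to the dried surface for 30 minutes. Percent mortality was recorded 24 hours after contact.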

[5] = tested on: Anopheles funestus strain FUMOZ-R; assay: Anopheles funestus test (ANPHFU surface treatment & contact assay); conditions: surface concentration 20 mg/m^2, 30 minutes exposure, 24 hours after contact, read-out: efficacy (mortality)
Procedure, shortened: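 Compound dissolved in acetone (2 mg/ml) with 2000 ppm rapeseed oil methyl ester, dried onto glazed tile; adult Anopheles funestus FUMOZ-R exposed for 30 minutes. Percent mortality scored 24 hours after contact.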

[6] = tested on: cattle ticks (Boophilus microplus) strane Parhurst, SP-resistant; assay: Boophilus microplus dip test; conditions: 100 ppm, egg deposition after 7 days
Protocol: Boophilus microplus—Dip Test
Test animal: cattle ticks (Boophilus microplus) strane Parhurst, SP-resistant
Solvent: dimethyl sulfoxide
To produce a suitable preparation of active compound, 10 mg of active compound are dissolved in 0.5 ml solvent, and the concentrate is diluted with water to the desired concentration.
This compound solution is pipetted into tubes. 8-10 engorged, adult, female cattle ticks (Boophilus microplus) are placed in perforated tubes. These tubes are immersed in the aqueous compound solution until the ticks are completely moistened. After the liquid has drained off, the ticks are transferred to a filter paper in a plastic tray and stored in a climate chamber.
After 7 days egg deposition of fertile eggs is monitored. Eggs where fertility is not visible are stored in a climate chamber till hatching after about 42 days. An efficacy of 100% means all eggs are infertile; 0% means all eggs are fertile.

## CCN(C(=O)c1cc(Cl)cc(S(C)(=O)=O)c1)C(C)c1ncnn1-c1ncccn1 (centres unmarked) [Example I-040, 3-chloro-N-ethyl-5-(methylsulfonyl)-N-{1-[1-(pyrimidin-2-yl)-1H-1,2,4-triazol-5-yl]ethyl}benzamide]
[1]
  pest or weed control at 160 µg/disc, 160 µg/well: 100%
[2]
  mortality at 4 ppm: 100%
[3]
  pest or weed control at 5 µg/cm2, 5 µg/cm2: 100%
[4]
  mortality at 20 mg/m2: 80 to 100%

## C[C@@H](NC(=O)c1cc(Cl)cc(S(=O)(=O)C2CC2)c1)c1ncnn1-c1ncccn1 [Example I-042]
[1]
  pest or weed control at 160 µg/disc, 160 µg/well: 100%
[5]
  mortality at 20 mg/m2: 85 to 100%
[2]
  mortality at 4 ppm: 100%
[6]
  efficacy (infertile eggs): 100%
[3]
  pest or weed control at 5 µg/cm2, 5 µg/cm2: 80%
[4]; surface concentration 4 mg/m^2, 30 minutes exposure
  mortality at 4 mg/m2: 80 to 100%
[4]
  mortality at 20 mg/m2: 80 to 100%
